According to ChEMBL document CHEMBL5321200, “Discovery of the GSH responsive "Y-PROTACs" targeting ALK and CDK4/6 as a potential treatment for cancer” (Eur J Med Chem, 2023):
Active and inactive are the calls of the source. The rule behind the calls is not given here.

Legend:
NCI-H1299 [1] = assay: Antiproliferative activity against human NCI-H1299 cells assessed as inhibition of cell growth incubated for 3 to 5 days by MTT assay; assay type: functional, cell-based
NCI-H2228 [2] = assay: Antiproliferative activity against human NCI-H2228 cells assessed as inhibition of cell growth pretreated with GSH followed by compound addition and incubated for 3 to 5 days by MTT assay; assay type: functional, cell-based
NCI-H3122 [3] = assay: Antiproliferative activity against human NCI-H3122 cells assessed as inhibition of cell growth incubated for 3 to 5 days by MTT assay; assay type: functional, cell-based
NCI-H3122 [4] = assay: Antiproliferative activity against human NCI-H3122 cells assessed as inhibition of cell growth pretreated with GSH followed by compound addition and incubated for 3 to 5 days by MTT assay; assay type: functional, cell-based
NCI-H1299 [5] = assay: Antiproliferative activity against human NCI-H1299 cells assessed as inhibition of cell growth pretreated with GSH followed by compound addition and incubated for 3 to 5 days by MTT assay; assay type: functional, cell-based
NCI-H2228 [6] = assay: Antiproliferative activity against human NCI-H2228 cells assessed as inhibition of cell growth incubated for 3 to 5 days by MTT assay; assay type: functional, cell-based
[7] = biological target: Protein cereblon/Cyclin-dependent kinase 6 (Homo sapiens) (UniProt Q00534+Q96SW2); assay: PROTAC activity at CRBN/CDK6 in human NCI-H3122 cells assessed as reduction in CDK6 protein level at 1 to 10 uM incubated for 24 hrs by Western blot analysis; assay type: cell-based; details: dose 1-10 µM
Protein cereblon/Cyclin-dependent kinase 6 (Homo sapiens), sequence (Q00534 whole entry, looked up): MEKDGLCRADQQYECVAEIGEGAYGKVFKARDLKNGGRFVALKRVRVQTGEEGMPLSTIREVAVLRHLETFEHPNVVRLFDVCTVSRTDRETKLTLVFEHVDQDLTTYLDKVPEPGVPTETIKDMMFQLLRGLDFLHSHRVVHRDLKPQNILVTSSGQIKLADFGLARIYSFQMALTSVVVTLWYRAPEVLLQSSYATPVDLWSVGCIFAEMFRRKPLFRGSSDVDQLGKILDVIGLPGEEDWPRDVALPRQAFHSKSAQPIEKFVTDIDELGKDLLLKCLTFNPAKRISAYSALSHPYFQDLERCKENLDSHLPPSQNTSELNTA
Protein cereblon/Cyclin-dependent kinase 6 (Homo sapiens), sequence (Q96SW2 whole entry, looked up): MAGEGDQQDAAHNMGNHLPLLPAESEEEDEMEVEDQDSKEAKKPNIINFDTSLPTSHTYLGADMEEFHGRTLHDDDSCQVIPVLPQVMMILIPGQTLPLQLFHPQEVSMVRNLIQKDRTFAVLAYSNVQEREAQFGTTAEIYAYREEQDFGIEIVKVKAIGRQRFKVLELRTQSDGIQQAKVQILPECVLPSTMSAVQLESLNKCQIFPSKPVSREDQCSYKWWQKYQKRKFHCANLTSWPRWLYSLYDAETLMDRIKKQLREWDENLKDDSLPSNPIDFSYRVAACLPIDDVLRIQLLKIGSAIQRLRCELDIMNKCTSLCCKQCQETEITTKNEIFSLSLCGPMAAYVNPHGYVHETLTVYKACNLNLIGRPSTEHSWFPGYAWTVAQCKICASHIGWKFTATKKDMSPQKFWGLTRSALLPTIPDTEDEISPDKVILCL

[8] = biological target: Cyclin-dependent kinase 6 (Homo sapiens) (UniProt Q00534); assay: Inhibition of CDK6 (unknown origin) at 1 uM by LANCE Ultra TR-FRET assay relative to control
Cyclin-dependent kinase 6 (Homo sapiens), sequence (Q00534 whole entry): as the sequence (Q00534 whole entry, looked up) above

NCI-H3122 [9] = assay: Antiproliferative activity against human NCI-H3122 cells assessed as inhibition of cell growth incubated for 5 days by MTT assay; assay type: functional, cell-based; details: NCI-H3122, 120 h
[10] = biological target: Cyclin-dependent kinase 4 (Homo sapiens) (UniProt P11802); assay: Inhibition of CDK4 (unknown origin) at 0.05 uM by LANCE Ultra TR-FRET assay relative to control
Cyclin-dependent kinase 4 (Homo sapiens), sequence (P11802 whole entry): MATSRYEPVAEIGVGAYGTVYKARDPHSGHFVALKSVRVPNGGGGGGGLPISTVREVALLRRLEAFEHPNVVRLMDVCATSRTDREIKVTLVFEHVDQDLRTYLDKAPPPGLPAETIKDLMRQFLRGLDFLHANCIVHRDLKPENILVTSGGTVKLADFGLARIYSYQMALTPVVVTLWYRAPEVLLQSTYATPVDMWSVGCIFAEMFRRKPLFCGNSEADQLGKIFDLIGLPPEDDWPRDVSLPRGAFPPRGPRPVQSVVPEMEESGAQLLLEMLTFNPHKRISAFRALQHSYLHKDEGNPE

[11] = biological target: Cyclin-dependent kinase 4 (Homo sapiens) (UniProt P11802); assay: Inhibition of CDK4 (unknown origin) at 1 uM by LANCE Ultra TR-FRET assay relative to control
[12] = biological target: Cyclin-dependent kinase 6 (Homo sapiens) (UniProt Q00534); assay: Inhibition of CDK6 (unknown origin) at 0.05 uM by LANCE Ultra TR-FRET assay relative to control

| Compound | IC50 (NCI-H1299 [1]) [µM] | IC50 (NCI-H2228 [2]) [µM] | IC50 (NCI-H3122 [3]) [µM] | IC50 (NCI-H3122 [4]) [µM] | IC50 (NCI-H1299 [5]) [µM] | IC50 (NCI-H2228 [6]) [µM] | Activity [7] | inhibition [8] [%] | IC50 (NCI-H3122 [9]) [µM] | inhibition [10] [%] | inhibition [11] [%] | inhibition [12] [%] |
| --- | --- | --- | --- | --- | --- | --- | --- | --- | --- | --- | --- | --- |
| CC(=O)c1c(C)c2cnc(Nc3ccc(N4CCN(CC(=O)NCCSSCCN(CC(=O)NCCNc5cccc6c5C(=O)N(C5CCC(=O)NC5=O)C6=O)C(=O)CCC(=O)N5CCC(c6cc(OC(C)C)c(Nc7ncc(Cl)c(Nc8ccccc8S(=O)(=O)C(C)C)n7)cc6C)CC5)CC4)cn3)nc2n(C2CCCC2)c1=O (centres undefined) | > 50 | 11 | 31.5 | 22.8 | 12.9 | > 50 | inactive | – | – | – | – | – |
| CC(=O)c1c(C)c2cnc(Nc3ccc(N4CCN(CC(=O)NCCSSCCN(CC(=O)NCCNc5cccc6c5C(=O)N(C5CCC(=O)NC5=O)C6=O)C(=O)CCCCCCCCCCC(=O)N5CCC(c6cc(OC(C)C)c(Nc7ncc(Cl)c(Nc8ccccc8S(=O)(=O)C(C)C)n7)cc6C)CC5)CC4)cn3)nc2n(C2CCCC2)c1=O (centres undefined) | 36.7 | 17 | 10.6 | 3.47 | 21.5 | 25.8 | inactive | – | – | – | – | – |
| CC(=O)c1c(C)c2cnc(Nc3ccc(N4CCN(CC(=O)NCCSSCCN(CC(=O)Nc5cccc6c5C(=O)N(C5CCC(=O)NC5=O)C6=O)C(=O)CCCCCCCCCCC(=O)N5CCC(c6cc(OC(C)C)c(Nc7ncc(Cl)c(Nc8ccccc8S(=O)(=O)C(C)C)n7)cc6C)CC5)CC4)cn3)nc2n(C2CCCC2)c1=O (centres undefined) | > 50 | > 50 | > 50 | 31.2 | > 50 | > 50 | inactive | – | – | – | – | – |
| CC(=O)c1c(C)c2cnc(Nc3ccc(N4CCN(CC(=O)NCCSSCCN(CC(=O)Nc5cccc6c5C(=O)N(C5CCC(=O)NC5=O)C6=O)C(=O)CCCCCCCCC(=O)N5CCC(c6cc(OC(C)C)c(Nc7ncc(Cl)c(Nc8ccccc8S(=O)(=O)C(C)C)n7)cc6C)CC5)CC4)cn3)nc2n(C2CCCC2)c1=O (centres undefined) | > 50 | > 50 | 10.9 | 4.46 | 25.1 | > 50 | inactive | – | – | – | – | – |
| CC(=O)c1c(C)c2cnc(Nc3ccc(N4CCN(CC(=O)NCCSSCCN(CC(=O)NCCNc5cccc6c5C(=O)N(C5CCC(=O)NC5=O)C6=O)C(=O)CCCCCCCCC(=O)N5CCC(c6cc(OC(C)C)c(Nc7ncc(Cl)c(Nc8ccccc8S(=O)(=O)C(C)C)n7)cc6C)CC5)CC4)cn3)nc2n(C2CCCC2)c1=O (centres undefined) | 30.2 | 3.15 | 2.24 | 0.92 | 10.3 | 15.4 | inactive | – | – | – | – | – |
| CC(=O)c1c(C)c2cnc(Nc3ccc(N4CCN(CC(=O)NCCSSCCN(CC(=O)Nc5cccc6c5C(=O)N(C5CCC(=O)NC5=O)C6=O)C(=O)CCCCCCC(=O)N5CCC(c6cc(OC(C)C)c(Nc7ncc(Cl)c(Nc8ccccc8S(=O)(=O)C(C)C)n7)cc6C)CC5)CC4)cn3)nc2n(C2CCCC2)c1=O (centres undefined) | 28.3 | > 50 | 6.92 | 2.35 | 10.7 | > 50 | inactive | – | – | – | – | – |
| CC(=O)c1c(C)c2cnc(Nc3ccc(N4CCN(CC(=O)NCCSSCCN(CC(=O)NCCNc5cccc6c5C(=O)N(C5CCC(=O)NC5=O)C6=O)C(=O)CCCCC(=O)N5CCC(c6cc(OC(C)C)c(Nc7ncc(Cl)c(Nc8ccccc8S(=O)(=O)C(C)C)n7)cc6C)CC5)CC4)cn3)nc2n(C2CCCC2)c1=O (centres undefined) | 25.6 | 4.07 | 1.02 | 0.77 | 13.5 | 9.58 | inactive | – | – | – | – | – |
| CC(=O)c1c(C)c2cnc(Nc3ccc(N4CCN(CC(=O)NCCS)CC4)cn3)nc2n(C2CCCC2)c1=O | – | – | – | – | – | – | – | 99.5 | 1.23 | 58.1 | 94.5 | 93.4 |
